≈ marks a conversion by molar mass, not a printed value.
Assays:
Staph.aureus A 2001 [1] = assay: micro serial dilution test; assay type: cell-based, Staphylococcus aureus; conditions: micro serial dilution (in brackets), about 18 hours, 30° C. or 37° C.
Shig.equir. T 3 = assay: agar serial dilution test; assay type: cell-based; conditions: 37° C.
Pseud.aerug. 2396 = assay: agar serial dilution test; assay type: cell-based; conditions: agar serial dilution, 24 hours, 37° C.
Strep. faec. L 80 = assay: agar serial dilution test; assay type: cell-based, Streptococcus faecalis; conditions: agar serial dilution, 24 hours, 37° C.
Past.multo. A 723 = assay: agar serial dilution test; assay type: cell-based, Pasteurella multocida; conditions: agar serial dilution, 24 hours, 37° C.
Prot.mirab. H 3 = assay: agar serial dilution test; assay type: cell-based, Proteus mirabilis; conditions: agar serial dilution, 24 hours, 37° C.
Pseud.aerug. H 10 = assay: agar serial dilution test; assay type: cell-based; conditions: agar serial dilution, 24 hours, 37° C.
Kleb.pneum. A 809 = assay: agar serial dilution test; assay type: cell-based, Klebsiella pneumoniae; conditions: agar serial dilution, 24 hours, 37° C.
Prot.morg. 2241 = assay: agar serial dilution test; assay type: cell-based; conditions: agar serial dilution, 24 hours, 37° C.
Salm.typh. R 127 = assay: agar serial dilution test; assay type: cell-based; conditions: 37° C.
Staph.aureus A 2000 [2] = assay: micro serial dilution test; assay type: cell-based, Staphylococcus aureus; conditions: micro serial dilution (in brackets), about 18 hours, 30° C. or 37° C.
Esch.coli U 20 = assay: agar serial dilution test; assay type: cell-based, Escherichia coli; conditions: agar serial dilution, 24 hours, 37° C.
Staph.aureus A 2001 [3] = assay: agar serial dilution test; assay type: cell-based, Staphylococcus aureus; conditions: agar serial dilution, 24 hours, 37° C.
Staph.aureus A 2000 [4] = assay: agar serial dilution test; assay type: cell-based, Staphylococcus aureus; conditions: agar serial dilution, 24 hours, 37° C.
Staph.aureus A 355 [5] = assay: agar serial dilution test; conditions: penicillinase-producing strain
[6] = system: Pseud.aerug. Wyeth A 1058; assay: agar serial dilution test; assay type: cell-based; conditions: agar serial dilution, 24 hours, 37° C.
Staph.aureus A 321 = assay: agar serial dilution test; assay type: cell-based, Staphylococcus aureus; conditions: agar serial dilution, 24 hours, 37° C.
Prot.mirab. A 1200 = assay: agar serial dilution test; assay type: cell-based, Proteus mirabilis; conditions: agar serial dilution, 24 hours, 37° C.
Prot.mirab. L 93 = assay: agar serial dilution test; assay type: cell-based, Proteus mirabilis; conditions: agar serial dilution, 24 hours, 37° C.
Staph.aureus A 355 [7] = assay: micro serial dilution test; assay type: cell-based, Staphylococcus aureus; conditions: micro serial dilution (in brackets), about 18 hours, 30° C. or 37° C., penicillinase-producing strain
Text: Two drops of a stock solution of the test compound (antibiotic) in a known concentration were brought into the first hole of a test plate with 9 numbered holes with a sterile Pasteur pipette. After rinsing this pipette three times with a physiological NaCl-solution, two drops of a stock solution of the test organism in a culture medium were brought in all the holes except for hole 8. In the first hole, the solution of the tested compound had been half diluted, then by stirring the liquid in the first hole and adding two drops of this mixture to the second hole and so on until hole 8, dilutions of the test compound solution were obtained in geometrical progression. The hole 9 contained no antibiotic and served for checking the growth of the testogranism in a blank medium. The test plate was incubated at 30° C. or 37° C. for about 18 hours.
^1 Penicillinase-producing strain

Haem.infl. A 1030 = assay: micro serial dilution test; assay type: cell-based; conditions: micro serial dilution (in brackets), about 18 hours, 30° C. or 37° C.
Bac.Subt.ATCC 6633 = assay: agar serial dilution test; assay type: cell-based, Bacillus subtilis; conditions: agar serial dilution, 24 hours, 37° C.
Prot.rettg. A 821 = assay: agar serial dilution test; assay type: cell-based, Proteus rettgeri; conditions: agar serial dilution, 24 hours, 37° C.
Salm.dubl. P 43 = assay: agar serial dilution test; assay type: cell-based, Salmonella dublin; conditions: agar serial dilution, 24 hours, 37° C.
Dipl.pneum. L 54 = assay: agar serial dilution test; assay type: cell-based, Diplococcus pneumoniae; conditions: agar serial dilution, 24 hours, 37° C.
Strep.haem. A 266 = assay: agar serial dilution test; assay type: cell-based, Streptococcus haemolyticus; conditions: Streptococcus; agar serial dilution, 24 hours, 37° C.; read-out: minimal inhibitory concentration (MIC)
[8] = 24 h, read-out: minimal inhibitory concentration (MIC)
[9] = read-out: minimal inhibitory concentration (MIC)
[10] = Proteus mirabilis, read-out: minimal inhibitory concentration (MIC)

Q: Which results are given for “7-[α-morpholino(3-methyl-1,2,4-oxadiazol-5-yl)-acetamido]-3-acetoxymethyl-3-cephem-4-carboxylic acid [Compound E]”?
A: minimal inhibitory concentration (MIC) (Staph.aureus A 2001 [1]): 4 µg/mL; minimal inhibitory concentration (MIC) (Shig.equir. T 3; 24 hours): > 100 µg/mL; minimal inhibitory concentration (MIC) (Pseud.aerug. 2396): > 100 µg/mL; minimal inhibitory concentration (MIC) (Strep. faec. L 80): > 100 µg/mL; minimal inhibitory concentration (MIC) (Past.multo. A 723): 6 µg/mL; minimal inhibitory concentration (MIC) (Prot.mirab. H 3): > 100 µg/mL; minimal inhibitory concentration (MIC) (Pseud.aerug. H 10): > 100 µg/mL; minimal inhibitory concentration (MIC) (Kleb.pneum. A 809): 25 µg/mL; minimal inhibitory concentration (MIC) (Prot.morg. 2241): > 100 µg/mL; minimal inhibitory concentration (MIC) (Salm.typh. R 127; 24 hours): > 100 µg/mL; minimal inhibitory concentration (MIC) (Staph.aureus A 2000 [2]): 8 µg/mL; minimal inhibitory concentration (MIC) (Esch.coli U 20): > 100 µg/mL; minimal inhibitory concentration (MIC) (Staph.aureus A 2001 [3]): 12.5 µg/mL; minimal inhibitory concentration (MIC) (Staph.aureus A 2000 [4]): 12.5 µg/mL; minimal inhibitory concentration (MIC) (Staph.aureus A 355 [5]; agar serial dilution, 24 hours, 37° C.): 12.5 µg/mL; minimal inhibitory concentration (MIC) [6]: > 100 µg/mL; minimal inhibitory concentration (MIC) (Staph.aureus A 321): 6 µg/mL; minimal inhibitory concentration (MIC) (Prot.mirab. A 1200): > 100 µg/mL; minimal inhibitory concentration (MIC) (Prot.mirab. L 93): 100 µg/mL; minimal inhibitory concentration (MIC) (Staph.aureus A 355 [7]): 8 µg/mL; minimal inhibitory concentration (MIC) (Haem.infl. A 1030): > 125 µg/mL; minimal inhibitory concentration (MIC) (Bac.Subt.ATCC 6633): 6 µg/mL; minimal inhibitory concentration (MIC) (Prot.rettg. A 821): 3 µg/mL; minimal inhibitory concentration (MIC) (Salm.dubl. P 43): > 100 µg/mL; minimal inhibitory concentration (MIC) (Dipl.pneum. L 54): 12.5 µg/mL

Q: Which MIC (Staph.aureus A 2001 [1]; Staphylococcus aureus, A2001, 18 h, read-out: minimal inhibitory concentration (MIC)) does the source give for CC(=O)OCC1=C(C(=O)O)N2C(=O)[C@@H](NC(=O)Cc3noc(Cc4ccccc4)n3)[C@H]2SC1 [Compound C, 7-[(5-benzyl-1,2,4-oxadiazol-3-yl)-acetamido]-3-acetoxymethyl-3-cephem-4-carboxylic acid] here?
A: 0.6 µg/mL (≈ 1.27 µM)

Q: What about the MIC (Strep.haem. A 266) of the same molecule?
A: 0.5 µg/mL (≈ 1.06 µM)

Q: What about the MIC (Shig.equir. T 3; [8]) of the same molecule?
A: 25 µg/mL (≈ 52.9 µM)

Q: What about the MIC (Pseud.aerug. 2396; [9]) of the same molecule?
A: > 100 µg/mL

Q: What about the MIC (Strep. faec. L 80; Enterococcus faecalis, read-out: minimal inhibitory concentration (MIC)) of the same molecule?
A: 12.5 µg/mL (≈ 26.5 µM)

Q: What about the MIC (Past.multo. A 723; Pasteurella multocida, read-out: minimal inhibitory concentration (MIC)) of the same molecule?
A: 1 µg/mL (≈ 2.12 µM)

Q: And the MIC (Prot.mirab. H 3; [10])?
A: > 100 µg/mL

Q: And the MIC (Pseud.aerug. H 10; [9])?
A: > 100 µg/mL

Q: What about the MIC (Kleb.pneum. A 809; Klebsiella pneumoniae, read-out: minimal inhibitory concentration (MIC)) of the same molecule?
A: 12.5 µg/mL (≈ 26.5 µM)

Q: And the MIC (Prot.morg. 2241; [8])?
A: > 100 µg/mL

Q: And the MIC (Salm.typh. R 127; [8])?
A: > 100 µg/mL

Q: What about the MIC (Staph.aureus A 2000 [2]; Staphylococcus aureus, A2000, 18 h, read-out: minimal inhibitory concentration (MIC)) of the same molecule?
A: 0.3 µg/mL (≈ 0.635 µM)

Q: What about the MIC (Esch.coli U 20; Escherichia coli, U20, read-out: minimal inhibitory concentration (MIC)) of the same molecule?
A: > 100 µg/mL

Q: And the MIC (Staph.aureus A 2001 [3]; Staphylococcus aureus, A2001, 24 h, read-out: minimal inhibitory concentration (MIC))?
A: 0.25 µg/mL (≈ 0.529 µM)

Q: What about the MIC (Staph.aureus A 2000 [4]; Staphylococcus aureus, A2000, 24 h, read-out: minimal inhibitory concentration (MIC)) of the same molecule?
A: 0.25 µg/mL (≈ 0.529 µM)

Q: What about the MIC (Staph.aureus A 355 [5]; Staphylococcus aureus, A355, 24 h, read-out: minimal inhibitory concentration (MIC), agar serial dilution, 24 hours, 37° C.) of the same molecule?
A: 0.75 µg/mL (≈ 1.59 µM)

Q: And the MIC [6, 9]?
A: > 100 µg/mL

Q: And the MIC (Staph.aureus A 321; Staphylococcus aureus, A321, 24 h, read-out: minimal inhibitory concentration (MIC))?
A: 0.25 µg/mL (≈ 0.529 µM)

Q: And the MIC (Prot.mirab. A 1200; Proteus mirabilis, 24 h, read-out: minimal inhibitory concentration (MIC))?
A: > 100 µg/mL

Q: What about the MIC (Prot.mirab. L 93; [10]) of the same molecule?
A: 25 µg/mL (≈ 52.9 µM)

Q: What about the MIC (Staph.aureus A 355 [7]; Staphylococcus aureus, A355, read-out: minimal inhibitory concentration (MIC)) of the same molecule?
A: 0.6 µg/mL (≈ 1.27 µM)

Q: What about the MIC (Haem.infl. A 1030; 18 h, read-out: minimal inhibitory concentration (MIC)) of the same molecule?
A: 125 µg/mL (≈ 265 µM)

Q: What about the MIC (Bac.Subt.ATCC 6633; Bacillus subtilis, ATCC6633, 24 h, read-out: minimal inhibitory concentration (MIC)) of the same molecule?
A: 0.25 µg/mL (≈ 0.529 µM)

Q: What about the MIC (Prot.rettg. A 821; Providencia rettgeri, 24 h, read-out: minimal inhibitory concentration (MIC)) of the same molecule?
A: 50 µg/mL (≈ 106 µM)

Q: And the MIC (Salm.dubl. P 43; Salmonella enterica, read-out: minimal inhibitory concentration (MIC))?
A: > 100 µg/mL

Q: What about the MIC (Dipl.pneum. L 54; Streptococcus pneumoniae, read-out: minimal inhibitory concentration (MIC)) of the same molecule?
A: 0.5 µg/mL (≈ 1.06 µM)
